{
  "source": "ChEMBL document CHEMBL5543162",
  "about": "“Discovery of a Novel Orally Bioavailable FLT3-PROTAC Degrader for Efficient Treatment of Acute Myeloid Leukemia and Overcoming Resistance of FLT3 Inhibitors” (J Med Chem, 2024)",
  "key": {"[1]": {"system": "MV4-11", "assay": "Antiproliferative activity against human MV4-11 cells expressing FLT3-ITD mutant incubated for 48 hrs by CCK8 assay", "format": "functional, cell-based", "conditions": "MV4-11, 48 h"}, "[2]": {"molecular_target": "Protein cereblon/Receptor-type tyrosine-protein kinase FLT3 (Homo sapiens, UniProt P36888+Q96SW2)", "sequence (P36888 whole entry, looked up, change not shown)": "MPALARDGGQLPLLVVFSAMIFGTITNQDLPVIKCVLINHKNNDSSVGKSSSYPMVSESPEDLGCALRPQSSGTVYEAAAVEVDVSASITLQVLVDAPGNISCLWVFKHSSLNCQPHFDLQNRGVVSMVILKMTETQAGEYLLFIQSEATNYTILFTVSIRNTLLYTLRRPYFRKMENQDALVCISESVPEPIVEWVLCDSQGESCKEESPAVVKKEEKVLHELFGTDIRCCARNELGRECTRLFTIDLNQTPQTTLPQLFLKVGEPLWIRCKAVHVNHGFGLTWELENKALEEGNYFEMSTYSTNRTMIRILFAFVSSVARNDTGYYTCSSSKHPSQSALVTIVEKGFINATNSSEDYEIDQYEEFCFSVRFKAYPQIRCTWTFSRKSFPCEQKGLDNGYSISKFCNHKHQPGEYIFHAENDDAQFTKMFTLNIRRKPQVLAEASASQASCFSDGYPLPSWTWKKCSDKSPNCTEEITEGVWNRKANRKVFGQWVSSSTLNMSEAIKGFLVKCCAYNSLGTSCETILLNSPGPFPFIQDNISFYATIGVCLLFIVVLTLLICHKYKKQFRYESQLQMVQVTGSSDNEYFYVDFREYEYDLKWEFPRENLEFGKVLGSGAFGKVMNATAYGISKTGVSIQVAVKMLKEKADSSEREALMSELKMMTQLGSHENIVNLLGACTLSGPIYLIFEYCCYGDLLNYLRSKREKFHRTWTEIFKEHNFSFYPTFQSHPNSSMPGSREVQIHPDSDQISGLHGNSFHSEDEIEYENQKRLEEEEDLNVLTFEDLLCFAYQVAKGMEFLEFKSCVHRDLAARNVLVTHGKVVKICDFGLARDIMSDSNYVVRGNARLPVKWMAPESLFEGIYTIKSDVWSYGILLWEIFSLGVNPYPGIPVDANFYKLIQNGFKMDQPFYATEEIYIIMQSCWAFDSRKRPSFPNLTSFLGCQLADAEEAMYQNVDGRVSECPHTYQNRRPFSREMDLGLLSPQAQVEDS", "sequence (Q96SW2 whole entry, looked up, change not shown)": "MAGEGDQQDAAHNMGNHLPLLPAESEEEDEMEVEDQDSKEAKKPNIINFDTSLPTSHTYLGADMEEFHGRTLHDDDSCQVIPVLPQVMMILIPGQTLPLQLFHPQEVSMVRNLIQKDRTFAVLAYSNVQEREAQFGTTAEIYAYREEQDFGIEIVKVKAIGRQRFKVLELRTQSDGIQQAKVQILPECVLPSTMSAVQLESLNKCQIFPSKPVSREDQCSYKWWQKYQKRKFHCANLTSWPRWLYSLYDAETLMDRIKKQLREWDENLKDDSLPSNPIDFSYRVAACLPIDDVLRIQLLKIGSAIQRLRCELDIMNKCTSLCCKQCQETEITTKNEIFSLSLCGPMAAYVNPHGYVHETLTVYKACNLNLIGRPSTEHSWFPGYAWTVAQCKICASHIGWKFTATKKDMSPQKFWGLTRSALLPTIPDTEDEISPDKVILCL", "assay": "PROTAC activity at CRBN/FLT3-ITD mutant in human MOLM-13 cells assessed as protein degradation by Western blot analysis", "format": "cell-based"}, "[3]": {"system": "Protein cereblon/Receptor-type tyrosine-protein kinase FLT3 (Homo sapiens), P36888+Q96SW2 [UNDEFINED MUTATION]", "sequence (P36888 whole entry, looked up, stated change not applied)": "as the sequence (P36888 whole entry, looked up, change not shown) above", "sequence (Q96SW2 whole entry, looked up, stated change not applied)": "as the sequence (Q96SW2 whole entry, looked up, change not shown) above", "assay": "PROTAC activity at CRBN/FLT3-ITD mutant in human MV4-11 cells assessed as protein degradation incubated for 12 hrs by Western blot analysis", "format": "cell-based", "conditions": "dose <= 20.0 nM"}, "[4]": {"system": "Protein cereblon/Receptor-type tyrosine-protein kinase FLT3 (Homo sapiens), P36888+Q96SW2 [UNDEFINED MUTATION]", "assay": "PROTAC activity at CRBN/FLT3-ITD mutant in human MV4-11 cells assessed as decrease in STAT5 level incubated for 12 hrs by Western blot analysis", "format": "cell-based", "conditions": "dose <= 20.0 nM"}, "[5]": {"system": "Protein cereblon/Receptor-type tyrosine-protein kinase FLT3 (Homo sapiens), P36888+Q96SW2 [UNDEFINED MUTATION]", "assay": "PROTAC activity at CRBN/FLT3-ITD mutant in human MV4-11 cells assessed as decrease in S6K level at 20 nM by Western blot analysis", "format": "cell-based", "conditions": "time <= 12.0 hrs, TDE = time-dependent effect"}, "[6]": {"system": "Protein cereblon/Receptor-type tyrosine-protein kinase FLT3 (Homo sapiens), P36888+Q96SW2 [UNDEFINED MUTATION]", "assay": "PROTAC activity at CRBN/FLT3-ITD mutant in human MOLM-13 cells assessed as protein degradation incubated for 12 hrs by Western blot analysis", "format": "cell-based", "conditions": "dose <= 20.0 nM"}, "[7]": {"system": "Protein cereblon/Receptor-type tyrosine-protein kinase FLT3 (Homo sapiens), P36888+Q96SW2 [UNDEFINED MUTATION]", "assay": "PROTAC activity at CRBN/FLT3-ITD mutant in human MOLM-13 cells assessed as decrease in ERK level incubated for 12 hrs by Western blot analysis", "format": "cell-based", "conditions": "dose <= 20.0 nM"}, "[8]": {"system": "Protein cereblon/Receptor-type tyrosine-protein kinase FLT3 (Homo sapiens), P36888+Q96SW2 [UNDEFINED MUTATION]", "assay": "PROTAC activity at CRBN/FLT3-ITD mutant in human MV4-11 cells assessed as protein degradation at 100 nM incubated for 8 hrs in presence of bortezomib by Western blot analysis", "format": "cell-based"}, "[9]": {"system": "Protein cereblon/Receptor-type tyrosine-protein kinase FLT3 (Homo sapiens), P36888+Q96SW2 [UNDEFINED MUTATION]", "assay": "PROTAC activity at CRBN/FLT3-ITD mutant in human MOLM-13 cells assessed as protein degradation at 100 nM incubated for 8 hrs in presence of bortezomib by Western blot analysis", "format": "cell-based"}, "[10]": {"assay": "Antiproliferative activity against human U-937 cells expressing wild-type FLT3 incubated for 48 hrs by CCK8 assay", "format": "toxicity, cell-based"}, "[11]": {"assay": "Antiproliferative activity against human PBMC cells at 30 to 1000 nM incubated for 48 hrs by CCK8 assay", "format": "toxicity, cell-based", "conditions": "1 µM, dose 30-1000 nM"}, "[12]": {"system": "MV4-11", "assay": "Induction of cell cycle arrest at G1 phase in human MV4-11 cells at 50 nM incubated for 24 hrs by PI/RNase staining based flow cytometry relative to control", "format": "functional"}, "[13]": {"system": "MOLM-13", "assay": "Induction of cell cycle arrest at G1 phase in human MOLM-13 cells incubated for 24 hrs by PI/RNase staining based flow cytometry", "format": "functional", "conditions": "dose 1-50 nM"}, "[14]": {"system": "MV4-11", "assay": "Induction of apoptosis in human MV4-11 cells incubated for 24 hrs by Annexin V-FITC/PI staining based flow cytometry", "format": "functional, cell-based", "conditions": "dose 25-100 nM"}, "[15]": {"assay": "Half life in Sprague-Dawley rat at 1 mg/kg, iv measured for 24 hrs by LC-MS/MS analysis", "format": "ADME, organism-based", "conditions": "in vivo"}, "[16]": {"assay": "Volume of distribution at steady state in Sprague-Dawley rat at 1 mg/kg, iv measured for 24 hrs by LC-MS/MS analysis", "format": "ADME, organism-based", "conditions": "in vivo, read-out: Vdss"}, "[17]": {"assay": "Half life in Sprague-Dawley rat at 10 mg/kg, po measured for 24 hrs by LC-MS/MS analysis", "format": "ADME, organism-based", "conditions": "in vivo"}, "[18]": {"assay": "Toxicity in nu/nu mouse xenografted with human MV4-11 cells assessed as damage in liver at 1.25 to 10 mg/kg, po administered daily for 2 weeks by H and E staining based analysis", "format": "organism-based", "conditions": "in vivo, 336 h, dose 1.25-10 mg/kg"}, "[19]": {"assay": "Toxicity in nu/nu mouse xenografted with human MV4-11 cells assessed as damage in spleen at 1.25 to 10 mg/kg, po administered daily for 2 weeks by H and E staining based analysis", "format": "organism-based", "conditions": "in vivo, 336 h, dose 1.25-10 mg/kg"}, "[20]": {"assay": "Toxicity in nu/nu mouse xenografted with human MV4-11 cells assessed as damage in kidney at 1.25 to 10 mg/kg, po administered daily for 2 weeks by H and E staining based analysis", "format": "organism-based", "conditions": "in vivo, 336 h, dose 1.25-10 mg/kg"}, "[21]": {"system": "MV4-11", "assay": "Antitumor activity against human MV4-11 cells expressing luciferase xenografted in NSG mouse assessed as increase in animal survival at 2.5 mg/kg, po administered daily for 3 weeks and measured for 58 days", "format": "functional, organism-based", "conditions": "time 58.0 day"}, "[22]": {"system": "Mus musculus", "assay": "Anti-leukemic activity in NSG mouse xenografted with human MV4-11 cells expressing luciferase assessed as decrease in CD45+/CD33+ cells proportion in spleen at 1.25 to 10 mg/kg, po administered daily for 3 weeks", "format": "functional, organism-based", "conditions": "dose 1.25-10 mg/kg"}, "[23]": {"system": "MOLM-13", "assay": "Antiproliferative activity against Sunitinib-resistant human MOLM-13 cells incubated for 48 hrs by CCK8 assay", "format": "functional, cell-based", "conditions": "MOLM-13, 48 h"}, "[24]": {"system": "MOLM-13", "assay": "Antiproliferative activity against Quizartinib-resistant human MOLM-13 cells incubated for 48 hrs by CCK8 assay", "format": "functional, cell-based", "conditions": "MOLM-13, 48 h"}, "[25]": {"system": "BaF3", "assay": "Antiproliferative activity against mouse Ba/F3 cells expressing FLT3-ITD D835Y mutant incubated for 48 hrs by CCK8 assay", "format": "functional, cell-based", "conditions": "BaF3, 48 h"}, "[26]": {"assay": "Stability in human liver microsomes assessed as intrinsic clearance", "format": "ADME, Microsome", "conditions": "read-out: CLH"}, "[27]": {"assay": "Stability in dog liver microsomes assessed as intrinsic clearance", "format": "ADME, Canis lupus familiaris, Microsome", "conditions": "read-out: CLH"}, "[28]": {"assay": "Stability in monkey liver microsomes assessed as intrinsic clearance", "format": "ADME, Microsome", "conditions": "chlorocebus aethiops, read-out: CLH"}, "[29]": {"assay": "Stability in rat liver microsomes assessed as intrinsic clearance", "format": "ADME, Microsome", "conditions": "read-out: CLH"}, "[30]": {"assay": "Stability in human liver microsomes assessed as hepatic clearance", "format": "ADME, Microsome"}, "[31]": {"assay": "Stability in monkey liver microsomes assessed as hepatic clearance", "format": "ADME, Microsome", "conditions": "chlorocebus aethiops"}, "[32]": {"assay": "Stability in mouse liver microsomes assessed as hepatic clearance", "format": "ADME, Microsome"}, "[33]": {"molecular_target": "Cytochrome P450 2C19 (Homo sapiens, UniProt P33261)", "sequence (P33261 whole entry)": "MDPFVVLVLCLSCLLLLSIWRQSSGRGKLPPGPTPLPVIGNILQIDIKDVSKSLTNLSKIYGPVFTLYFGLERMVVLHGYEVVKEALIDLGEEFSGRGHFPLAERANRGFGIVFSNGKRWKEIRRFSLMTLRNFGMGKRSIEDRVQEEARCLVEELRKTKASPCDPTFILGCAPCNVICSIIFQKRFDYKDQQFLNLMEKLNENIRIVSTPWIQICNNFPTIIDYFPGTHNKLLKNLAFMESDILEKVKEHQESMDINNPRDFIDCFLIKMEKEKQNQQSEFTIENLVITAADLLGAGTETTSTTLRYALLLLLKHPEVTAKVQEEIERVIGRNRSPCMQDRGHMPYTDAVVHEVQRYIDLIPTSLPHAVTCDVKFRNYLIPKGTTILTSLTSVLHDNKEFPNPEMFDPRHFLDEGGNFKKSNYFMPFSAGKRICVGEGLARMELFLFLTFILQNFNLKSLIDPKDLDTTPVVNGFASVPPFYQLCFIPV", "assay": "Inhibition of CYP2C19 (unknown origin)", "format": "ADME"}, "[34]": {"molecular_target": "T1, Cytochrome P450 2B6 (Homo sapiens, UniProt P20813)", "T1 sequence (P20813 whole entry)": "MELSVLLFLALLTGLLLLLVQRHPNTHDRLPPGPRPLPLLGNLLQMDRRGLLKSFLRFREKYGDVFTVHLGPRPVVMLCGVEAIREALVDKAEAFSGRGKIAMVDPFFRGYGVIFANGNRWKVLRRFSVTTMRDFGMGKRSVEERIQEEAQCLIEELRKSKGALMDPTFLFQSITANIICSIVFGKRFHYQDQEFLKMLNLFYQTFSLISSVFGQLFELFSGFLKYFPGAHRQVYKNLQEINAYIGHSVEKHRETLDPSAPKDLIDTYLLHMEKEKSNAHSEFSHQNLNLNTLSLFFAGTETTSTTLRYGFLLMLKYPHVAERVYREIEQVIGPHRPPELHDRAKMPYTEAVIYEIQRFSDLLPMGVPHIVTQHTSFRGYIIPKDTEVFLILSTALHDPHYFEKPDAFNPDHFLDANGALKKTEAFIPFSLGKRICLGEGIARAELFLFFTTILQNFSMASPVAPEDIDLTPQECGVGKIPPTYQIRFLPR", "assay": "Inhibition of CYP2B6 (unknown origin)", "format": "ADME"}, "[35]": {"molecular_target": "Voltage-gated inwardly rectifying potassium channel KCNH2 (Homo sapiens, UniProt Q12809)", "sequence (Q12809 whole entry)": "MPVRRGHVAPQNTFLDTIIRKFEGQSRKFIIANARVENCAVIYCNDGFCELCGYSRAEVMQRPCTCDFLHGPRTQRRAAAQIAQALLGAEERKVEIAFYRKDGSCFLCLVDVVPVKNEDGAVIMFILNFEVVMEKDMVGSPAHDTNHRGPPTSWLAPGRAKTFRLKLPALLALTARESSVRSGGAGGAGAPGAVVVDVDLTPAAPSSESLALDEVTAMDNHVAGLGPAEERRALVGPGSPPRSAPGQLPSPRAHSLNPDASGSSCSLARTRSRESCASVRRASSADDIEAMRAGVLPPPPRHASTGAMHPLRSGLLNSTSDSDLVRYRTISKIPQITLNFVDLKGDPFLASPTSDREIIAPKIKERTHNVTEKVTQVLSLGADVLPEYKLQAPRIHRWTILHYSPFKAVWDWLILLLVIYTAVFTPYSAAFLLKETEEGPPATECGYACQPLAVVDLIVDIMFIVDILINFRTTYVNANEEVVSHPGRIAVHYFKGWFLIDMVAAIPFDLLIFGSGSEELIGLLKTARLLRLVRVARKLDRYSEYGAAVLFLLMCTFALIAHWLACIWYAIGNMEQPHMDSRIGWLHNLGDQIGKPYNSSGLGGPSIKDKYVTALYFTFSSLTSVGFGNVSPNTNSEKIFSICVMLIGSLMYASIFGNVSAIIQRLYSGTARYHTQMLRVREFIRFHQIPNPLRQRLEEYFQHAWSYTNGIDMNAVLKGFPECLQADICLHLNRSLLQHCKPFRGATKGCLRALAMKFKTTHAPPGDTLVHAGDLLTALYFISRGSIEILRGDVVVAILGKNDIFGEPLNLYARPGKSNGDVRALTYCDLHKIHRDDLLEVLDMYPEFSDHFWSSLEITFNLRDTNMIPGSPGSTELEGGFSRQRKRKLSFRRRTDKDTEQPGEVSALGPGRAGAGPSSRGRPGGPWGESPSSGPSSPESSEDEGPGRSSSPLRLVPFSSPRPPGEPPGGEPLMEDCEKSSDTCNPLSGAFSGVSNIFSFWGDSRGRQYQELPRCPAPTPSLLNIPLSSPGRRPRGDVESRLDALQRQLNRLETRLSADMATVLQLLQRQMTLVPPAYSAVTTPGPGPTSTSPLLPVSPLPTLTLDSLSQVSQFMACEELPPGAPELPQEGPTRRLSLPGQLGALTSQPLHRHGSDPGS", "assay": "Inhibition of hERG", "format": "toxicity"}},
  "note": "Active and inactive are the calls of the source. The rule behind the calls is not given here.",
  "data": [
    {"smiles": "Cc1c(NC(=O)CN2CCN(CC3CCN(c4ccc5c(c4)C(=O)N(C4CCC(=O)NC4=O)C5=O)CC3)CC2)c[nH]c1/C=C1\\C(=O)Nc2ccc(F)cc21", "note": "(stereo not given)", "values": [
      {"measurement": "IC50", "setting": "[1]", "result": 39.9, "unit": "nM"},
      {"measurement": "DC50", "setting": "[2]", "result": 20.1, "unit": "nM"},
      {"measurement": "Activity", "setting": "[3]", "result": "Dose-Dependent Effect"},
      {"measurement": "Activity", "setting": "[4]", "result": "Dose-Dependent Effect"},
      {"measurement": "Activity", "setting": "[5]", "result": "Tde"},
      {"measurement": "Activity", "setting": "[6]", "result": "Dose-Dependent Effect"},
      {"measurement": "Activity", "setting": "[7]", "result": "Dose-Dependent Effect"},
      {"measurement": "Activity", "setting": "[8]", "result": "inactive"},
      {"measurement": "Activity", "setting": "[9]", "result": "inactive"},
      {"measurement": "IC50 at 48 h", "setting": "[10]", "result": "> 40000", "unit": "nM"},
      {"measurement": "Activity", "setting": "[11]", "result": "Non-Toxic"},
      {"measurement": "Activity", "setting": "[12]", "result": 89.2, "unit": "%"},
      {"measurement": "Activity", "setting": "[13]", "result": "Dose-Dependent Effect"},
      {"measurement": "Activity", "setting": "[14]", "result": "Dose-Dependent Effect"},
      {"measurement": "half-life", "setting": "[15]", "result": 6.5, "unit": "h"},
      {"measurement": "Vd", "setting": "[16]", "result": 3.5, "unit": "L/kg"},
      {"measurement": "half-life", "setting": "[17]", "result": 3.8, "unit": "h"},
      {"measurement": "Activity", "setting": "[18]", "result": "Non-Toxic"},
      {"measurement": "Activity", "setting": "[19]", "result": "Non-Toxic"},
      {"measurement": "Activity", "setting": "[20]", "result": "Non-Toxic"},
      {"measurement": "Activity", "setting": "[21]", "result": "Active"},
      {"measurement": "Activity", "setting": "[22]", "result": "Active"},
      {"measurement": "IC50", "setting": "[23]", "result": 147, "unit": "nM"},
      {"measurement": "IC50", "setting": "[24]", "result": 484, "unit": "nM"},
      {"measurement": "IC50", "setting": "[25]", "result": 31.3, "unit": "nM"},
      {"measurement": "CLint scaled", "setting": "[26]", "result": 23.1, "unit": "mL/min/kg"},
      {"measurement": "CLint scaled", "setting": "[27]", "result": 17.7, "unit": "mL/min/kg"},
      {"measurement": "CLint scaled", "setting": "[28]", "result": 50.7, "unit": "mL/min/kg"},
      {"measurement": "CLint scaled", "setting": "[29]", "result": 27, "unit": "mL/min/kg"},
      {"measurement": "CLhep predicted", "setting": "[30]", "result": 10.9, "unit": "mL/min/kg"},
      {"measurement": "CLhep predicted", "setting": "[31]", "result": 23.4, "unit": "mL/min/kg"},
      {"measurement": "CLhep predicted", "setting": "[32]", "result": 45.7, "unit": "mL/min/kg"},
      {"measurement": "IC50", "setting": "[33]", "result": "> 50000", "unit": "nM"},
      {"measurement": "IC50", "setting": "[34]", "result": "> 50000", "unit": "nM"},
      {"measurement": "IC50", "setting": "[35]", "result": "> 40000", "unit": "nM"}
    ]}
  ]
}
